Measurements: patent publication US7767659B2, “Synthesis of naturally occurring ecteinascidins and related compounds” (Pharma Mar, S.A., priority 2002, dated 2010)

Tests used:
A-549 = experiment: cells; details: Homo sapiens, A549, 48 h; for GI50: read-out: GI50 A549; for CC50: read-out: LC50 A549; for IC (TGI): read-out: TGI A549
Procedure, shortened: (§1)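 Colorimetric SRB read (490 nm) on triplicate wells after 48 h at 37 °C, 5% CO2. Dose range 10 to 10^−8 μg/ml; 5×10^3 cells/well pre-attached 18 h.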

HT-29 = experiment: cells; details: Homo sapiens, HT-29, 48 h; for GI50: read-out: GI50 HT29; for IC (TGI): read-out: TGI HT29
Procedure, shortened: as §1

LoVo = experiment: cells; details: Homo sapiens, LoVo, 48 h; for GI50: read-out: GI50 LOVO; for CC50: read-out: LC50 LOVO; for IC (TGI): read-out: TGI LOVO
Procedure, shortened: as §1

DU-145 = experiment: Inhibition of cells growth by colorimetric assay (SRB); details: Homo sapiens, DU-145, 48 h; for GI50: read-out: GI50 DU145; for IC (TGI): read-out: TGI DU145
Procedure, shortened: as §1

HeLa-APL = experiment: as above; details: Homo sapiens, 48 h; for GI50: read-out: GI50 HELA-APL; for CC50: read-out: LC50 HELA-APL
Procedure, shortened: as §1

HeLa = experiment: as above; details: Homo sapiens, HeLa, 48 h; for GI50: read-out: GI50 HELA; for CC50: read-out: LC50 HELA; for IC (TGI): read-out: TGI HELA
Procedure, shortened: as §1

IGROV-1 = experiment: as above; details: Homo sapiens, IGROV-1, 48 h; for GI50: read-out: GI50 IGROV; for CC50: read-out: LC50 IGROV; for IC (TGI): read-out: TGI IGROV
Procedure, shortened: as §1

IGROV-ET = experiment: as above; details: Homo sapiens, 48 h; for GI50: read-out: GI50 IGROV-ET; for CC50: read-out: LC50 IGROV-ET; for IC (TGI): read-out: TGI IGROV-ET
Procedure, shortened: as §1

K-562 = experiment: as above; details: Homo sapiens, K562, 48 h; for GI50: read-out: GI50 K562; for CC50: read-out: LC50 K562; for IC (TGI): read-out: TGI K562
Procedure, shortened: as §1

LNCaP = experiment: as above; details: Homo sapiens, LNCaP, 48 h; for GI50: read-out: GI50 LNCAP; for CC50: read-out: LC50 LNCAP; for IC (TGI): read-out: TGI LNCAP
Procedure, shortened: as §1

LoVo-Dox = experiment: as above; details: Homo sapiens, 48 h; for GI50: read-out: GI50 LOVO-DOX; for IC (TGI): read-out: TGI LOVO-DOX
Procedure, shortened: as §1

PANC-1 = experiment: as above; details: Homo sapiens, PANC-1, 48 h; for GI50: read-out: GI50 PANC-1; for IC (TGI): read-out: TGI PANC-1
Procedure, shortened: as §1

SK-BR-3 = experiment: as above; details: Homo sapiens, SK-BR-3, 48 h; for GI50: read-out: GI50 SK-BR3; for CC50: read-out: LC50 SK-BR3; for IC (TGI): read-out: TGI SK-BR3
Procedure, shortened: as §1

SK-MEL-28 = experiment: as above; details: Homo sapiens, SK-MEL-28, 48 h; for GI50: read-out: GI50 MEL-28; for CC50: read-out: LC50 MEL-28; for IC (TGI): read-out: TGI MEL-28
Procedure, shortened: as §1

`C=CCN1[C@@H]2c3c(cc(C)c(OC)c3O)C[C@H]1[C@H](C#N)N1C2[C@@H]2SC[C@H](NC(=O)c3cc4ccccc4oc3=O)C(=O)OC[C@H]1c1c3c(c(C)c(OC(C)=O)c12)OCO3` (stereo partly shown) [compound 28] gave a GI50 (A-549) of 0.0525 µM, a CC50 (A-549) of 2.27 µM and an IC (TGI) (A-549) of 0.163 µM. For the same compound, the GI50 (HT-29) was 0.0765 µM, the IC (TGI) (HT-29) was 2.05 µM and the GI50 (LoVo) was 0.0663 µM. It also gave a CC50 (LoVo) of 0.687 µM, an IC (TGI) (LoVo) of 0.212 µM and a GI50 (DU-145) of 0.0358 µM. The IC (TGI) (DU-145) was 1.27 µM, the GI50 (HeLa-APL) was 0.0559 µM and the CC50 (HeLa-APL) was 0.682 µM. For the same compound, the IC (TGI) (HeLa-APL; read-out: TGI HELA-APL) was 0.13 µM, the GI50 (HeLa) was 0.0386 µM and the CC50 (HeLa) was 0.289 µM. It also gave an IC (TGI) (HeLa) of 0.0755 µM, a GI50 (IGROV-1) of 0.049 µM and a CC50 (IGROV-1) of 1.57 µM. It also gave an IC (TGI) (IGROV-1) of 0.155 µM, a GI50 (IGROV-ET) of 0.138 µM and a CC50 (IGROV-ET) of 0.898 µM. For the same compound, the IC (TGI) (IGROV-ET) was 0.352 µM, the GI50 (K-562) was 0.0283 µM and the CC50 (K-562) was 2.69 µM. The IC (TGI) (K-562) was 0.135 µM, the GI50 (LNCaP) was 0.0229 µM and the CC50 (LNCaP) was 0.111 µM. For the same compound, the IC (TGI) (LNCaP) was 0.0504 µM, the GI50 (LoVo-Dox) was 0.362 µM and the IC (TGI) (LoVo-Dox) was 1.22 µM. It also gave a GI50 (PANC-1) of 0.0592 µM, an IC (TGI) (PANC-1) of 0.197 µM and a GI50 (SK-BR-3) of 0.0473 µM. The CC50 (SK-BR-3) was 1.22 µM, the IC (TGI) (SK-BR-3) was 0.164 µM and the GI50 (SK-MEL-28) was 0.0568 µM. It also gave a CC50 (SK-MEL-28) of 0.692 µM and an IC (TGI) (SK-MEL-28) of 0.135 µM.

`C=CCN1[C@@H]2c3c(cc(C)c(OC)c3OC(=O)/C=C/c3ccccc3)C[C@H]1[C@H](C#N)N1C2[C@@H]2SCC(NC(=O)C(F)(F)F)C(=O)OC[C@H]1c1c3c(c(C)c(OC(C)=O)c12)OCO3` (stereo partly shown) [compound 29] showed a GI50 (A-549) of 4.8 µM, a CC50 (A-549) of 11.4 µM and an IC (TGI) (A-549) of 11.4 µM. The GI50 (HT-29) was 11.4 µM, the CC50 (HT-29; read-out: LC50 HT29) was 11.4 µM and the IC (TGI) (HT-29) was 11.4 µM. The GI50 (LoVo) was 2.85 µM, the CC50 (LoVo) was 11.4 µM and the IC (TGI) (LoVo) was 11.4 µM. It also gave a GI50 (DU-145) of 2.3 µM, a CC50 (DU-145; read-out: LC50 DU145) of 11.4 µM and an IC (TGI) (DU-145) of 7.93 µM. It also gave a GI50 (HeLa-APL) of 4.29 µM, a CC50 (HeLa-APL) of 11.4 µM and a GI50 (HeLa) of 6.3 µM. For the same compound, the CC50 (HeLa) was 11.4 µM, the IC (TGI) (HeLa) was 11.4 µM and the GI50 (IGROV-1) was 2.19 µM. It also gave a CC50 (IGROV-1) of 11.4 µM, an IC (TGI) (IGROV-1) of 11.4 µM and a GI50 (IGROV-ET) of 3.12 µM. It also gave a CC50 (IGROV-ET) of 11.4 µM, an IC (TGI) (IGROV-ET) of 11.4 µM and a GI50 (K-562) of 0.629 µM. It also gave a CC50 (K-562) of 11.4 µM, an IC (TGI) (K-562) of 3.9 µM and a GI50 (LNCaP) of 0.878 µM. The CC50 (LNCaP) was 11.4 µM, the IC (TGI) (LNCaP) was 6.07 µM and the GI50 (LoVo-Dox) was 4.09 µM. The CC50 (LoVo-Dox; read-out: LC50 LOVO-DOX) was 11.4 µM, the IC (TGI) (LoVo-Dox) was 11.4 µM and the GI50 (PANC-1) was 6.55 µM. For the same compound, the CC50 (PANC-1; read-out: LC50 PANC-1) was 11.4 µM, the IC (TGI) (PANC-1) was 11.4 µM and the GI50 (SK-BR-3) was 0.889 µM. For the same compound, the CC50 (SK-BR-3) was 11.4 µM, the IC (TGI) (SK-BR-3) was 7.98 µM and the GI50 (SK-MEL-28) was 3.74 µM. For the same compound, the CC50 (SK-MEL-28) was 11.4 µM and the IC (TGI) (SK-MEL-28) was 11.4 µM.
